Experimental data as given in ChEMBL document CHEMBL4028801, “A multifactorial approach to hepatobiliary transporter assessment enables improved therapeutic compound development” (Toxicol Sci, 2013).
Where a name gives a salt, the structure may show the parent alone.

Columns and labels:
Bile salt export pump = Bile salt export pump (Homo sapiens, UniProt O95342); assay: Inhibition of human BSEP overexpressed in Sf9 cell membrane vesicles assessed as uptake of [3H]-taurocholate in presence of ATP measured after 15 to 20 mins by membrane vesicle transport assay; assay type: ADME, cell-based
Sequence of Bile salt export pump (O95342 whole entry): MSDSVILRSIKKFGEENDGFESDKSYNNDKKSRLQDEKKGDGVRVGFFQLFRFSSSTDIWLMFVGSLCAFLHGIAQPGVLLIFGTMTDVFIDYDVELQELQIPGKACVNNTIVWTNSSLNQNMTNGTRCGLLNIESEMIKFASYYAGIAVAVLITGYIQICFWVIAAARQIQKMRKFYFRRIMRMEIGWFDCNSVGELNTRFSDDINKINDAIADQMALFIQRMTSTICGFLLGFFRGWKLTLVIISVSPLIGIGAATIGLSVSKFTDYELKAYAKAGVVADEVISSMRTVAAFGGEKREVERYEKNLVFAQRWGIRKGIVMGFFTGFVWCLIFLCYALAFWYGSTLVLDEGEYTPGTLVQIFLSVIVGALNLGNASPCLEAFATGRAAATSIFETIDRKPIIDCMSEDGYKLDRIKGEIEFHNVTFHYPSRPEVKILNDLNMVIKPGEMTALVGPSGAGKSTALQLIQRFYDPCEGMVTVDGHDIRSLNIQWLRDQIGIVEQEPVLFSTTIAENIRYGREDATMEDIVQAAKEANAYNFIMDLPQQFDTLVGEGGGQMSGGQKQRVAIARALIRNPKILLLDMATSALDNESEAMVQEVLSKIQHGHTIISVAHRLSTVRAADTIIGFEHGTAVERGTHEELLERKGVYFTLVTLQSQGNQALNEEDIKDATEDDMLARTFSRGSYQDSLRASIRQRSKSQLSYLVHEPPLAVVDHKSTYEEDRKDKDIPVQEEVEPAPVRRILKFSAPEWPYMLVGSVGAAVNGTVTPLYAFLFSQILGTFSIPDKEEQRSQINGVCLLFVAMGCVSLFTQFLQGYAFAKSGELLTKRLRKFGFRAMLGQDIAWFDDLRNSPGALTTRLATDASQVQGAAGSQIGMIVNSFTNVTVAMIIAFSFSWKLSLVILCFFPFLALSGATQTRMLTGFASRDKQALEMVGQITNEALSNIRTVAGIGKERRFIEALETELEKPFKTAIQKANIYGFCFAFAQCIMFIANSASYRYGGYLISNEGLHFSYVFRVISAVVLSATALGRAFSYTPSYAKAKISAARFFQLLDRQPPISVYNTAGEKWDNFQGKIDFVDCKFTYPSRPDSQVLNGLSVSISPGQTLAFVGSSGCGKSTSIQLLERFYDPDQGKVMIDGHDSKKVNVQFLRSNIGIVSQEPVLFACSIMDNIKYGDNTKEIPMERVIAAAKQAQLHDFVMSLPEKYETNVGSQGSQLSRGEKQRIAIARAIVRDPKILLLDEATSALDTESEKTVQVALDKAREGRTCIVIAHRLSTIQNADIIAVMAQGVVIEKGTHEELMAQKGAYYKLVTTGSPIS

[1] = molecular target: ATP-binding cassette sub-family C member 2 (Homo sapiens, UniProt Q92887); assay: Inhibition of human MRP2 overexpressed in Sf9 cell membrane vesicles assessed as uptake of [3H]-estradiol-17beta-D-glucuronide in presence of ATP and GSH measured after 20 mins by membrane vesicle transport assay
Sequence of ATP-binding cassette sub-family C member 2 (Q92887 whole entry): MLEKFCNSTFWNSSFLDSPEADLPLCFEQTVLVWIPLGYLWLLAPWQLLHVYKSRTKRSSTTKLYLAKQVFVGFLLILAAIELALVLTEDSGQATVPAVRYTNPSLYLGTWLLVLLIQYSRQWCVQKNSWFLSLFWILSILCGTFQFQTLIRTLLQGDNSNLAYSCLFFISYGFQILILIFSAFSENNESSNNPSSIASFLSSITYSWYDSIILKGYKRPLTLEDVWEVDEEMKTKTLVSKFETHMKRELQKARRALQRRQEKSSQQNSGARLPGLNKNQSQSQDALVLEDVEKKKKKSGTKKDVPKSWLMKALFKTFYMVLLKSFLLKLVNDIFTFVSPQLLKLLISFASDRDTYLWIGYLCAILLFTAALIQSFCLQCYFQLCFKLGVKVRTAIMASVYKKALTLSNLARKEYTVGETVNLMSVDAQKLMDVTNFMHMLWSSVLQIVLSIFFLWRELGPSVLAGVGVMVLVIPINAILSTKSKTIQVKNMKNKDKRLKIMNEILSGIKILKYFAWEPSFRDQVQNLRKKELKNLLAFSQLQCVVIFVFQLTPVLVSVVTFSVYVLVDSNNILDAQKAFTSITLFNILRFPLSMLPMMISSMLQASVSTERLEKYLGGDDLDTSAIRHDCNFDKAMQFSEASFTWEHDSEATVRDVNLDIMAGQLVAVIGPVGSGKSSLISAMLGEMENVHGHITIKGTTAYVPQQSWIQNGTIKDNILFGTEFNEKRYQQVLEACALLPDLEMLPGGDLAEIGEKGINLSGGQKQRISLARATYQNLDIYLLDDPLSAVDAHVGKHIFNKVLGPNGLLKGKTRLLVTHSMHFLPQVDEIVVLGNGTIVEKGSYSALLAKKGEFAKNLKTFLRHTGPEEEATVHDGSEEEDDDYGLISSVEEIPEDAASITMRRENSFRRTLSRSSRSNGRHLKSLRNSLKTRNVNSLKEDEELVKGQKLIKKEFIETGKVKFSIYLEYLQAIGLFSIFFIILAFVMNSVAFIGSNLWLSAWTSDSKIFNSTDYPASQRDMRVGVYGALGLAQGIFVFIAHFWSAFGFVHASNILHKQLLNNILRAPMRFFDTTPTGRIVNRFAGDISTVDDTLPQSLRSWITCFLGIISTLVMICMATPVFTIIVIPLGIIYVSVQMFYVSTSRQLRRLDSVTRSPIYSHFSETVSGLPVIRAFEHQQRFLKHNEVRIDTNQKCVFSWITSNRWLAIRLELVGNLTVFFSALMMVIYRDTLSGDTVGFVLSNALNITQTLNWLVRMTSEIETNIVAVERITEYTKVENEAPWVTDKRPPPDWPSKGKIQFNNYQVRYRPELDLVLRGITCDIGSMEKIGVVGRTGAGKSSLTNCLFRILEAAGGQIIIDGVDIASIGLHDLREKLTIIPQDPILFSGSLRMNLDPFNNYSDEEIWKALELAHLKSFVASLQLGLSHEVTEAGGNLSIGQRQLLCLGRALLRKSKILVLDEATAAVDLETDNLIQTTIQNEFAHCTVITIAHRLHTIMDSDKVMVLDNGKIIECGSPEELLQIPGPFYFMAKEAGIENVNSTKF

[2] = molecular target: ATP-binding cassette sub-family C member 3 (Homo sapiens, UniProt O15438); assay: Inhibition of human MRP3 overexpressed in Sf9 insect cell membrane vesicles assessed as uptake of [3H]-estradiol-17beta-D-glucuronide in presence of ATP and GSH measured after 10 mins by membrane vesicle transport assay; assay type: ADME, cell-based
Sequence of ATP-binding cassette sub-family C member 3 (O15438 whole entry): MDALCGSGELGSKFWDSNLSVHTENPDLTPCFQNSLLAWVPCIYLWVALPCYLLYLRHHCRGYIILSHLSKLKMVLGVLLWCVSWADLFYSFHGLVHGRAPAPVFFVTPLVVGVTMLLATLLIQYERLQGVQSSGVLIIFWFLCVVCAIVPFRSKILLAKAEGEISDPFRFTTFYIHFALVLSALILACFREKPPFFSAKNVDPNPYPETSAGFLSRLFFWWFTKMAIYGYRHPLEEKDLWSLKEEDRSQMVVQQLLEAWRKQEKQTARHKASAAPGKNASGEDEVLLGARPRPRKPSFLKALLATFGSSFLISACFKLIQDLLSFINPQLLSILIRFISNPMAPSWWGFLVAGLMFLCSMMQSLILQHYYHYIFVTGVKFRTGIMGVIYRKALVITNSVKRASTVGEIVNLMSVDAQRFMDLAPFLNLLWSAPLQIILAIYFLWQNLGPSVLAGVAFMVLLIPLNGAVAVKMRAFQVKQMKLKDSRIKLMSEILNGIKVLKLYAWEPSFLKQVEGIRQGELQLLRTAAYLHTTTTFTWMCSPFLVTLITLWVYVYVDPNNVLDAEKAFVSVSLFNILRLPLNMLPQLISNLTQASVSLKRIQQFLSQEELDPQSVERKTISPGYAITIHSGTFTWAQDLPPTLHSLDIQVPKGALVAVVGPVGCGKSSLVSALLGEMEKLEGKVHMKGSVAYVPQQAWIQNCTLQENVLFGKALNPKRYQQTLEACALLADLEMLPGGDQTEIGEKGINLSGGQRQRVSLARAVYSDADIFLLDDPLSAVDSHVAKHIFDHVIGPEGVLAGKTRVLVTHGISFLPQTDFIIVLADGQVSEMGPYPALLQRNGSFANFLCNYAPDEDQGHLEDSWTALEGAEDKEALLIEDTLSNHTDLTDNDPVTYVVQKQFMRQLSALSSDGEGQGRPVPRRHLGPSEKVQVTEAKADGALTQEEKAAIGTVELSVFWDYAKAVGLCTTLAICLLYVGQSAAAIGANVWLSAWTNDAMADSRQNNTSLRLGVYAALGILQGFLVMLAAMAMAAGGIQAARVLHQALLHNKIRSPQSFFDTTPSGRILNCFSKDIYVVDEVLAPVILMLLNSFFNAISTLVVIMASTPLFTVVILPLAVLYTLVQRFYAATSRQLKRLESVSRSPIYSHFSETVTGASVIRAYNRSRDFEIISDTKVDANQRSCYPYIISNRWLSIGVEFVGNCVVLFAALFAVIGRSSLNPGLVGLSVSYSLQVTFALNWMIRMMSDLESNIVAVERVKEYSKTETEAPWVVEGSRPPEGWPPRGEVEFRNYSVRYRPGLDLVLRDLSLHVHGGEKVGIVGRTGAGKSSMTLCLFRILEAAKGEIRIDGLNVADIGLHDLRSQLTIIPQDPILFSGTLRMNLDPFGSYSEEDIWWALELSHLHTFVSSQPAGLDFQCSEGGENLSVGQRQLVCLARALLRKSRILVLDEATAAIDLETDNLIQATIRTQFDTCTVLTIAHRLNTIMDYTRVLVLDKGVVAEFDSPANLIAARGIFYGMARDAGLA

[3] = molecular target: T1, ATP-binding cassette sub-family C member 4 (Homo sapiens, UniProt O15439); assay: Inhibition of human MRP4 overexpressed in Sf9 cell membrane vesicles assessed as uptake of [3H]-estradiol-17beta-D-glucuronide in presence of ATP and GSH measured after 20 mins by membrane vesicle transport assay; assay type: ADME, cell-based
T1 sequence (O15439 whole entry): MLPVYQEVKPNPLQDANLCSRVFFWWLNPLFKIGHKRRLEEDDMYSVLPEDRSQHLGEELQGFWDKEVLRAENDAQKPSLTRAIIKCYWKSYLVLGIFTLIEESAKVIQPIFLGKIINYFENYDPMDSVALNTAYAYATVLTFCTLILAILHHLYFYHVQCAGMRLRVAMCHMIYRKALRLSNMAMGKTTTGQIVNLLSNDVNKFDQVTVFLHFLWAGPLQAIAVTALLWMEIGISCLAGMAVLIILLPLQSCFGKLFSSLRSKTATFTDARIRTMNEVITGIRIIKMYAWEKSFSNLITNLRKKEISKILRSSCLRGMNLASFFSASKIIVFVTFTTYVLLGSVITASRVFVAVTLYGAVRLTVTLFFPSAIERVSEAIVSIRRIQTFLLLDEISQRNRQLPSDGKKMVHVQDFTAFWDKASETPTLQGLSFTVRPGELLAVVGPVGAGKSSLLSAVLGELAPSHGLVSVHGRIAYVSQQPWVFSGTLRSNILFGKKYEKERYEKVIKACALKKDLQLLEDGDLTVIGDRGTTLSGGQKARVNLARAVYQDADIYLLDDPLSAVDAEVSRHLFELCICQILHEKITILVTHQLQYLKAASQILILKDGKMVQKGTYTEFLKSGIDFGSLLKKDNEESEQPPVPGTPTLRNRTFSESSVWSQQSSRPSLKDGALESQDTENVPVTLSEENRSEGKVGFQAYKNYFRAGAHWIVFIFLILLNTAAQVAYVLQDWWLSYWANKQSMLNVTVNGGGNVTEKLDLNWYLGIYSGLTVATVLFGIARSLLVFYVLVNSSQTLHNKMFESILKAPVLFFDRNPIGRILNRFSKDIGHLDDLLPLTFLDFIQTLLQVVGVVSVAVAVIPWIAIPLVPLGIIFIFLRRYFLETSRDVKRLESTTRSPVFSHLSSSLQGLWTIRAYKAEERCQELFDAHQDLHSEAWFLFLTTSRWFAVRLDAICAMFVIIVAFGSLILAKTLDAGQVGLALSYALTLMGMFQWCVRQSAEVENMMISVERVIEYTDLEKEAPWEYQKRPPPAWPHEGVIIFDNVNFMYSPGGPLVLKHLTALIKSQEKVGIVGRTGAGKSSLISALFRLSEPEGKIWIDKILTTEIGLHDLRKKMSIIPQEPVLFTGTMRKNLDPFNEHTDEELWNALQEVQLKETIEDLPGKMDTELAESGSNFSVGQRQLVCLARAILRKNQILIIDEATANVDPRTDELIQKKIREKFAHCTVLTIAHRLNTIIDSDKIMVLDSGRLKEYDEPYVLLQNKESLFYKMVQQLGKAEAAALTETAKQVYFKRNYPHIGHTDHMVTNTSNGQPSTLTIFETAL

Row | Compound | IC50 (Bile salt export pump) [µM] | IC50 [1] [µM] | IC50 [2] [µM] | IC50 [3] [µM]
1 | CCOC(=O)[C@H](CCc1ccccc1)N[C@@H](C)C(=O)N1[C@H](C(=O)O)C[C@@H]2CCC[C@@H]21 | > 133 | > 133 | > 133 | > 133
2 | CC(=O)NS(=O)(=O)c1ccc(N)cc1 | > 133 | > 133 | > 133 | > 133
3 | COc1ccc(-c2ccc3cc(C(=O)O)ccc3c2)cc1C12CC3CC(CC(C3)C1)C2 | > 133 | > 133 | > 133 | > 133
4 | CNS(=O)(=O)Cc1ccc2[nH]cc(CCN(C)C)c2c1 | > 133 | > 133 | > 133 | > 133
5 | CC[C@@H](C(N)=O)N1CCCC1=O | > 133 | > 133 | > 133 | > 133
6 | CC1=C(CC(=O)O)c2cc(F)ccc2/C1=C\c1ccc([S+](C)[O-])cc1 (stereo not given) | > 133 |  | > 133 | > 133
7 | CCOC(=O)[C@H](CCc1ccccc1)N[C@@H](C)C(=O)N1Cc2ccccc2C[C@H]1C(=O)O | 94 |  | > 133 | > 133
8 | O=C(O)c1ccccc1-c1c2ccc(=O)cc-2oc2cc(O)ccc12 | > 133 | > 133 | > 133 | > 133
9 | O=c1[nH]c(=O)n([C@H]2CCCO2)cc1F | > 133 | > 133 | > 133 | > 133
10 | O=C(O[C@@H]1C[C@@H]2C[C@H]3C[C@H](C1)N2CC3=O)c1c[nH]c2ccccc12 | > 133 | > 133 | > 133 | > 133
11 | CC[C@H](C)[C@@H]1NC(=O)[C@H](Cc2ccc(O)cc2)NC(=O)[C@@H](N)CSSC[C@@H](C(=O)N2CCC[C@H]2C(=O)N[C@@H](CC(C)C)C(=O)NCC(N)=O)NC(=O)[C@H](CC(N)=O)NC(=O)[C@H](CCC(N)=O)NC1=O | > 133 | > 133 | > 133 | > 133
12 | NC(=O)CN1CCCC1=O | > 133 | > 133 | > 133 | > 133
13 | C[C@](N)(Cc1ccc(O)c(O)c1)C(=O)O | > 133 |  | 41.2 | 8.08
14 | CS(=O)(=O)N1CCN(Cc2cc3nc(-c4cccc5[nH]ncc45)nc(N4CCOCC4)c3s2)CC1 | 15.2 | > 133 | > 133 | 2.7
15 | CO/N=C(\C(=O)N[C@@H]1C(=O)N2C(C(=O)O)=C(CSc3nc(=O)c(=O)[nH]n3C)CS[C@H]12)c1csc(N)n1 | > 133 | > 133 | > 133 | 35.6
16 | NCC1O[C@H](O[C@H]2[C@@H](O)[C@H](O[C@H]3[C@H](O)[C@@H](N)C[C@@H](N)[C@@H]3O[C@H]3O[C@H](CN)[C@@H](O)[C@H](O)[C@H]3N)O[C@@H]2CO)[C@H](N)[C@@H](O)[C@@H]1O (stereo not given in full) | > 133 | > 133 | > 133 | > 133
17 | CC(=O)Nc1ccc(S(=O)(=O)Nc2ccc([N+](=O)[O-])cc2)cc1 | > 133 |  | > 133 | > 133
18 | C[C@@H](O)[C@H]1C(=O)N2C(C(=O)O)=C(S[C@@H]3CN[C@H](C(=O)Nc4cccc(C(=O)O)c4)C3)[C@H](C)[C@H]12 | > 133 | 56.2 | > 133 | > 133
19 | C=C1[C@H](CO)[C@@H](O)C[C@@H]1n1cnc2c(=O)[nH]c(N)nc21 | > 133 | > 133 | > 133 | > 133
20 | CO[C@H]1O[C@@H]2O[C@@]3(C)CC[C@H]4[C@H](C)CC[C@@H]([C@H]1C)[C@@]24OO3 | > 133 | > 133 | > 133 | > 133
21 | Cc1onc(-c2ccccc2)c1C(=O)N[C@@H]1C(=O)N2[C@@H]1SC(C)(C)[C@@H]2C(=O)O | > 133 | > 133 | > 133 | > 133
22 | CN1CC(=O)N2[C@H](c3ccc4c(c3)OCO4)c3[nH]c4ccccc4c3C[C@@H]2C1=O | > 133 | > 133 | > 133 | > 133

Row | Compound | IC50 (Bile salt export pump) [µM] | IC50 [1] [µM] | IC50 [2] [µM] | IC50 [3] [µM]
23 | N[C@@H](Cc1ccc(N(CCCl)CCCl)cc1)C(=O)O | > 133 | > 133 | > 133 | > 133
24 | C=CC1=C(C(=O)O)N2C(=O)[C@@H](NC(=O)/C(=N\O)c3csc(N)n3)[C@H]2SC1 | > 133 | > 133 | > 133 | 11.6
25 | C=C1CC[C@@]2(O)[C@H]3Cc4ccc(O)c5c4[C@@]2(CCN3CC2CC2)[C@H]1O5 | > 133 | > 133 | > 133 | > 133
26 | O=C(O)COC(=O)Cc1ccccc1Nc1c(Cl)cccc1Cl [ACECLOFENAC] | 105 |  | > 133 | > 133
27 | CCCCCC[C@H]1C(=O)O[C@H](C)[C@H](NC(=O)c2cccc(NC=O)c2O)C(=O)O[C@@H](C)[C@@H]1OC(=O)CC(C)C [ANTIMYCIN A] | 59.6 |  | > 133 | > 133
28 | Nc1c(CC(=O)O)cccc1C(=O)c1ccc(Br)cc1 [BROMFENAC] | > 133 |  | > 133 | > 133
29 | CCCCNc1cc(C(=O)O)cc(S(N)(=O)=O)c1Oc1ccccc1 [BUMETANIDE] | > 133 |  | > 133 | > 133
30 | Cc1cc(C2CCCCC2)n(O)c(=O)c1 [CICLOPIROX] | > 133 |  | > 133 | > 133
31 | CC(C)(Oc1ccc(C2CC2(Cl)Cl)cc1)C(=O)O (stereo not given) [CIPROFIBRATE] | > 133 |  | > 133 | > 133
32 | CN1C(=O)CN=C(c2ccccc2)c2cc(Cl)ccc21 [DIAZEPAM] | > 133 |  | > 133 | > 133
33 | Cc1ccc(C)c(OCCCC(C)(C)C(=O)O)c1 [GEMFIBROZIL] | > 133 |  | > 133 | > 133
34 | N#C/C(=C1/SCC(c2ccccc2Cl)S1)n1ccnc1 (stereo not given) [LANOCONAZOLE] | 9.65 |  | > 133 | > 133
35 | Cc1cnc(NC(=O)C2=C(O)c3ccccc3S(=O)(=O)N2C)s1 [MELOXICAM] | 77.5 |  | > 133 | > 133
36 | CCOC(=O)C1=C(C)NC(C)=C(C(=O)OC)C1c1cccc([N+](=O)[O-])c1 (stereo not given) [NITRENDIPINE] | 22.5 |  | > 133 | > 133
37 | COc1cc2nc(N3CCN(C(=O)c4ccco4)CC3)nc(N)c2cc1OC [PRAZOSIN] | > 133 |  | > 133 | 12.5
38 | CC(=O)[C@H]1[C@H](C#N)C[C@H]2[C@@H]3CC=C4C[C@@H](O)CC[C@]4(C)[C@H]3CC[C@@]21C [PREGNENOLONE CARBONITRILE] | > 133 |  | > 133 | > 133
39 | CCCc1nn(C)c2c(=O)[nH]c(-c3cc(S(=O)(=O)N4CCN(C)CC4)ccc3OCC)nc12 [SILDENAFIL CITRATE] | 132 | > 133 | > 133 | 
40 | CCOC(=O)[C@H](CCc1ccccc1)N[C@@H](C)C(=O)N1[C@H](C(=O)O)C[C@H]2CCCC[C@@H]21 [TRANDOLAPRIL] | > 133 |  | > 133 | > 133
41 | O=c1n(CCCN2CCN(c3cccc(Cl)c3)CC2)nc2ccccn12 [TRAZODONE HYDROCHLORIDE] | > 133 |  | > 133 | > 133
42 | O=c1n(CCCN2CCN(c3cccc(Cl)c3)CC2)nc2ccccn12 [TRAZODONE] | > 133 |  | > 133 | > 133
43 | BIVALIRUDIN | > 133 | > 133 |  | > 133
